From patent publication US4599352A, “Antineoplastic platinum (IV) complexes and compositions” (priority 1984, dated 1986)

What was measured:
IP L1210 = assay: Activity against IP-implanted L1210 leukemia sensitive to cisplatin, 60 day test (Table 4); format: in vivo, Female CD2Fl mice
Method: (§1) Biological properties of the compounds of the present invention were determined following the protocol described in Cancer Chemotherapy Reports, Vol. 3, No. 3, 1972 which report is incorporated herein by reference.
(§2) Other known mechanisms of resistance for other classes of agents, such as gene amplification or target enzyme change or amplication, also need to be explored. The experiments summarized in Table 3 were conducted at the same time against both sublines using the same drug preparations. […] These experiments were repeated in a second laboratory as documented in Table 4. However, in these experiments the animals were held for 60 rather than 30 days to evaluate whether or not long-term survivors are produced after drug treatment in a more challenging setting.
This experiment (A8-00005 3LE31) was conducted at the Southern Research Institute, Birmingham, Ala. under the supervision of Dr. Daniel Griswold. The protocols were the same as those published previously (Geran et al., Cancer Chemotherapy Reports 3: No. 2, 1972 [Attachment 11]). 10^5 cells were implanted intraperitoneally in CD2Fl male mice on Day 0. Drug treatments were given intraperitoneally as single injections at the doses indicated on Days 1, 5 and 9 after tumor implantation. The diluent was saline except for NSC-271674 where 5% sodium bicarbonate was used. All drugs were prepared fresh on the day of injection, and all were administered in solution. Median survival times for both control and drug-treated mice were determined and expressed as a percentage (% T/C). Body weights were determined on Day 5 and expressed as a weight difference (body weight of the drug-treated animals minus that of the control animals in grams) (T-C). The diluent control animals lived a median of 8.4 days and gained 1.9 grams by Day 5 in this experiment. All animals, including Day 30 survivors, were used in the calculation of median survival times. The log10 change in tumor burden refers to the net log change in viable tumor cell population at the end of therapy (Rx) as compared to the start of therapy; e.g., a […] means that there was a […] and a 3 log change means there was a 1000-fold increase in tumor burden at the end of therapy. The tumor burden at the start of therapy was about 6.1×10^5 cells in this experiment.
(§3) These experiments (23-00081 3LE31 and 23-00003 3DP3l) were conducted concurrently at the Mason Research Institute, Worcester, MA under the supervision of Dr. William Cobb. See Table 4 for experimental details. The diluent control animals bearing L1210 leukemia lived a median of 8.3 days and gained 1.6 grams by Day 5. […] Female CD2Fl mice were used for these experiments.

IP L1210/Cisplatin = assay: Activity against IP-implanted L1210/Cisplatin leukemia resistant to cisplatin, 60 day test (Table 4); format: in vivo, Female CD2Fl mice
Method: as §1
as §2, with “setting. […]” for “setting.”
as §3

[1] = test system: SC Implanted L1210 Leukemia; assay: Activity against SC implanted L1210 leukemia following intravenous administration, once daily Days 1-5 (Table 5); format: in vivo, CD2Fl male mice
Method: as §1
In another type of experiment the same platinum complexes were directly compared against the SC implanted L1210 following intravenous administration (Table 5).
This experiment (A8-00004 3LE32) was conducted at the Southern Research Institute, Birmingham, Ala. under the supervision of Dr. Daniel Griswold. The protocols were the same as those published previously (Attachment 11). 10^6 cells were implanted subcutaneously in CD2Fl male mice on Day 0. Drug treatments were given intravenously once daily at the doses indicated on Days 1-5 after tumor implantation. The dosage range tested included the highest and lowest doses indicated in the Table as well as intermediate values which were determined by multiplying each dose in turn by 0.5 starting with the highest dose. The diluent was saline except for NSC-271674 for which 5% sodium bicarbonate was used. All drugs were prepared fresh on the day of injection, and all were administered in solution. Median survival times for both control and drug-treated mice were determined and expressed as a percentage (% T/C). Body weights were determined on Day 5 and expressed as a weight difference (body weight of the drug-treated animals minus that of the control animals in grams) (T-C).

IP L1210 leukemia = assay: Mouse optimal (highest tolerated) dose, IP L1210 leukemia, Days 1, 5 and 9 schedule (Table 7); format: in vivo
Source text: *IP L1210 leukemia, Days 1, 5 and 9 schedule. Highest tolerated dose in a
least 2 of 3 experiments (i.e,. animal weight difference (testcontrol)

N[C@@H]1CCCC[C@H]1N.O=C([O-])c1ccc(C(=O)[O-])c(C(=O)[O-])c1.[H+].[Pt+2] [Carboxyphthalato Platinum, carboxyphthalatocyclohexanediamine platinum (II), reference compound]
60 Day Survivors/Total (IP L1210; 3.13 mg/kg/dose): 2/10
Body Weight Difference (IP L1210; 3.13 mg/kg/dose): -2.3 Grams
Median % T/C (IP L1210; 3.13 mg/kg/dose): 280%
60 Day Survivors/Total (IP L1210; 6.25 mg/kg/dose): 2/10
Body Weight Difference (IP L1210; 6.25 mg/kg/dose): -3.5 Grams
Median % T/C (IP L1210; 6.25 mg/kg/dose): 313%
60 Day Survivors/Total (IP L1210; 12.5 mg/kg/dose): 0/10
Body Weight Difference (IP L1210; 12.5 mg/kg/dose): -6.0 Grams
Median % T/C (IP L1210; 12.5 mg/kg/dose): Toxic
60 Day Survivors/Total (IP L1210; 25 mg/kg/dose): 0/10
Median % T/C (IP L1210; 25 mg/kg/dose): Toxic
60 Day Survivors/Total (IP L1210; 50 mg/kg/dose): 0/10
Median % T/C (IP L1210; 50 mg/kg/dose): Toxic
60 Day Survivors/Total (IP L1210/Cisplatin; 3.13 mg/kg/dose): 6/10
Body Weight Difference (IP L1210/Cisplatin; 3.13 mg/kg/dose): -1.2 Grams
Median % T/C (IP L1210/Cisplatin; 3.13 mg/kg/dose): 645%
60 Day Survivors/Total (IP L1210/Cisplatin; 6.25 mg/kg/dose): 2/10
Body Weight Difference (IP L1210/Cisplatin; 6.25 mg/kg/dose): -2.9 Grams
Median % T/C (IP L1210/Cisplatin; 6.25 mg/kg/dose): 236%
60 Day Survivors/Total (IP L1210/Cisplatin; 12.5 mg/kg/dose): 0/10
Body Weight Difference (IP L1210/Cisplatin; 12.5 mg/kg/dose): -5.5 Grams
Median % T/C (IP L1210/Cisplatin; 12.5 mg/kg/dose): Toxic
60 Day Survivors/Total (IP L1210/Cisplatin; 25 mg/kg/dose): 0/10
Body Weight Difference (IP L1210/Cisplatin; 25 mg/kg/dose): -3.7 Grams
Median % T/C (IP L1210/Cisplatin; 25 mg/kg/dose): Toxic
60 Day Survivors/Total (IP L1210/Cisplatin; 50 mg/kg/dose): 0/10
Median % T/C (IP L1210/Cisplatin; 50 mg/kg/dose): Toxic
Body Weight Difference ([1]; 6.25 mg/kg/inj IV): -2.6 Grams
Median % T/C ([1]; 6.25 mg/kg/inj IV): 124%
Median Survival Time ([1]; 6.25 mg/kg/inj IV): 12.8 days
Body Weight Difference ([1]; 12.5 mg/kg/inj IV): -6.1 Grams
Median % T/C ([1]; 12.5 mg/kg/inj IV): 165%
Median Survival Time ([1]; 12.5 mg/kg/inj IV): 17.0 days
HNTD (highest nontoxic dose; animal weight difference ≥ -4.0 grams) ([1]; IV once daily Days 1-5): 6.25 mg/kg/inj
Optimal Dose ([1]; IV once daily Days 1-5): 12.5 mg/kg/inj
Mouse Optimal Dose (highest tolerated dose in at least 2 of 3 experiments) (IP L1210 leukemia): 12.5 mg/kg

N.N.[Cl][Pt][Cl] [Cisplatin, cis-diamminedichloroplatinum (II), reference compound]
60 Day Survivors/Total (IP L1210; 1.25 mg/kg/dose): 0/10
Body Weight Difference (IP L1210; 1.25 mg/kg/dose): -0.6 Grams
Median % T/C (IP L1210; 1.25 mg/kg/dose): 127%
60 Day Survivors/Total (IP L1210; 5 mg/kg/dose): 0/10
Body Weight Difference (IP L1210; 5 mg/kg/dose): -2.4 Grams
Median % T/C (IP L1210; 5 mg/kg/dose): 240%
60 Day Survivors/Total (IP L1210; 10 mg/kg/dose): 0/10
Body Weight Difference (IP L1210; 10 mg/kg/dose): -5.1 Grams
Median % T/C (IP L1210; 10 mg/kg/dose): 107%
60 Day Survivors/Total (IP L1210; 20 mg/kg/dose): 0/10
Body Weight Difference (IP L1210; 20 mg/kg/dose): -5.8 Grams
Median % T/C (IP L1210; 20 mg/kg/dose): Toxic
60 Day Survivors/Total (IP L1210/Cisplatin; 1.25 mg/kg/dose): 0/10
Body Weight Difference (IP L1210/Cisplatin; 1.25 mg/kg/dose): -0.1 Grams
Median % T/C (IP L1210/Cisplatin; 1.25 mg/kg/dose): 103%
60 Day Survivors/Total (IP L1210/Cisplatin; 5 mg/kg/dose): 0/10
Body Weight Difference (IP L1210/Cisplatin; 5 mg/kg/dose): -2.3 Grams
Median % T/C (IP L1210/Cisplatin; 5 mg/kg/dose): 110%
60 Day Survivors/Total (IP L1210/Cisplatin; 10 mg/kg/dose): 0/10
Body Weight Difference (IP L1210/Cisplatin; 10 mg/kg/dose): -5.1 Grams
Median % T/C (IP L1210/Cisplatin; 10 mg/kg/dose): 87%
60 Day Survivors/Total (IP L1210/Cisplatin; 20 mg/kg/dose): 0/10
Body Weight Difference (IP L1210/Cisplatin; 20 mg/kg/dose): -5.6 Grams
Median % T/C (IP L1210/Cisplatin; 20 mg/kg/dose): Toxic
Activity against L1210/cisplatin (IP L1210/Cisplatin; mouse, in vivo): lack of activity
Body Weight Difference ([1]; 5 mg/kg/inj IV): -5.7 Grams
Median % T/C ([1]; 5 mg/kg/inj IV): 138%
Median Survival Time ([1]; 5 mg/kg/inj IV): 14.3 days
Optimal Dose ([1]; IV once daily Days 1-5): 5 mg/kg/inj
Mouse Optimal Dose (highest tolerated dose in at least 2 of 3 experiments) (IP L1210 leukemia): 10 mg/kg
